Read-outs that look alike come from different tables or passages of the source.
Key:
aSMase = target: T1, aSMase (Rattus norvegicus, UniProt F7ETC0); experiment: fluorescent aSMase assay with HMU-PC substrate; assay type: biochemical; details: for IC50: read-out: IC50 inhibition of aSMase
T1 construct: Crude preparations containing aSMase or nSMase were made from stripped rat brains; from tissue; host or cells: rat brain
T1 sequence (F7ETC0 1-626): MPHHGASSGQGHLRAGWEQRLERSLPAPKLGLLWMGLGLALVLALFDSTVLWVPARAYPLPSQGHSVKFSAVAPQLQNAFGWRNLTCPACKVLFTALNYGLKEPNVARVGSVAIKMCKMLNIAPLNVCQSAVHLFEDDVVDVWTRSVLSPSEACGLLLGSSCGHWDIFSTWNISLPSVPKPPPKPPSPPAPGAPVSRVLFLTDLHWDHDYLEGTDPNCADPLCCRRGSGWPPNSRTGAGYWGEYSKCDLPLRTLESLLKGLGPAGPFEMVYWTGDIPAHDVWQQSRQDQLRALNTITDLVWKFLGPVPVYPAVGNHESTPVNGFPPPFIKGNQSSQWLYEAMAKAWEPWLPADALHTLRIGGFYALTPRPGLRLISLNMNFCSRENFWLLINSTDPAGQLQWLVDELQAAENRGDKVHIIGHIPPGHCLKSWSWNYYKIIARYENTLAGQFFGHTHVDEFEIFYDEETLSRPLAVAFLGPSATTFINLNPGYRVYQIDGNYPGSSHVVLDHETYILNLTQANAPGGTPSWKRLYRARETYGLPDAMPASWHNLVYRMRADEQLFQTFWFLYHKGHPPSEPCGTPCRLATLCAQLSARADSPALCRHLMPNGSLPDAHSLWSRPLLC
Experimental: Enzyme assays: Crude preparations containing aSMase or nSMase were made from stripped rat brains, as described before. […] The fluorescent aSMase assay was performed in a 384-well-plate using the HMU-PC (6-Hexadecanoylamino-4-methylumbelliferyl-phosphorylcholine) substrate. Reaction mixtures consisted of 13.3 μL HMU-PC, 13.3 μL reaction-buffer (100 mM NaOAc, pH 5.2, 0.2% (w/v) Na—TC, […], 0.2% (v/v) Triton X-100) and 13.3 μL enzyme preparation. Inhibitors were added in various concentrations and the reactions were incubated for 3 hours at 37° C. in a plate reader (FLUOstar OPTIMA, BMG labtech). The fluorescence of HMU (6-Hexadecanoylamino-4-methylumbelliferone) was measured (excitation 380 nm, emission 460 nm) in real time. Assays using the radio-labelled sphingomyelin gave the same results.

[1] = tested on: α-galactosidase A (α-Gal A); details: sub-inhibitory intracellular concentrations; cited from earlier work
[2] = tested on: isolated, ventilated and perfused rat lungs; details: 10 μM; cited from earlier work
[3] = read-out: Inhibition [%] at 20 μM (aSMase, initial bisphosphonate collection)
[4] = read-out: Inhibition [%] at 20 μM (aSMase, initial phosphonate collection)

IC50 (aSMase) | SMILES | inhibition at 20 µM (aSMase; [3]) | further results
– | CCCCNC(P(=O)(O)O)P(=O)(O)O [Compound 9] | 76% | –
– | NC(CP(=O)(O)O)P(=O)(O)O (centres unmarked) [Compound 3] | – | inhibition at 20 µM (aSMase; [4]): 47%
– | NCCCCCC(O)(P(=O)(O)O)P(=O)(O)O [Compound 6] | 54% | –
– | O=P(O)(O)C(Nc1ccccc1)P(=O)(O)O [Compound 10] | 8% | –
– | CN(C)C(P(=O)(O)O)P(=O)(O)O [Compound 14] | 24% | –
4.66 ± 1.07 µM | CCCCCC(N)(P(=O)(O)O)P(=O)(O)O [Compound 7a] | 92% | –
– | CCCCP(=O)(O)O [Compound 2] | – | inhibition at 20 µM (aSMase; [4]): 2%
– | C=CCN(CC=C)C(P(=O)(O)O)P(=O)(O)O [Compound 11] | 32% | –
0.35 ± 0.06 µM | CCCCCCCCCC(OP(=O)(O)O)P(=O)(O)O (centres unmarked) [Compound 17, Decyl-1,1-phosphate phosphonate] | – | activity towards aSMase (aSMase): as active as its bisphosphonate analogue 15b
– | CC(C)CN(CC(C)C)C(P(=O)(O)O)P(=O)(O)O [Compound 12] | 2% | –
9.5 ± 4 µM | CCCCCC(N(C)C)(P(=O)(O)O)P(=O)(O)O [Compound 19a] | – | –
– | CC(NCC(=O)O)(P(=O)(O)O)P(=O)(O)O [Compound 8] | 62% | –
– | O=P(O)(O)CN(CP(=O)(O)O)CP(=O)(O)O [Compound 4] | – | inhibition at 20 µM (aSMase; [4]): 0%
– | O=P(O)(O)C(N(CO)CO)P(=O)(O)O [Compound 13] | 36% | –
– | OC[C@H]1NC[C@H](O)[C@@H](O)[C@H]1O [DGJ, 1-deoxy-galactonojirimycin] | – | stimulation of α-Gal A in cells [1]: seven- to eight-fold
0.18 ± 0.03 µM | CCCCCCCCCC(N(C)C)(P(=O)(O)O)P(=O)(O)O [Compound 19b, 1-dimethylaminodecyl-1,1-bisphosphonicacid] | – | –
– | CN(C)CCCN1c2ccccc2CCc2ccccc21 [imipramine] | – | attenuation of PAF-induced oedema formation [2]: attenuated but not completely prevented oedema formation
– | O=P(O)(O)CN(CCN(CP(=O)(O)O)CP(=O)(O)O)CCN(CP(=O)(O)O)CP(=O)(O)O [Compound 5] | – | inhibition at 20 µM (aSMase; [4]): -5%

SMILES | IC50 (aSMase) | inhibition at 20 µM (aSMase; [3]) | further results
CCCCCCCC(N)(P(=O)(O)O)P(=O)(O)O [Compound 7b] | 0.04 ± 0.01 µM | 93% | aSMase inhibitory potency relative to PtdIns-3,5P2 (aSMase): about one order of magnitude more potent than PtdIns-3,5P2
CCCCCCCCCC(OP(=O)(OC)OC)P(=O)(OC)OC (centres unmarked) [Compound 16, Decyl-1-dimethylphosphate-1-dimethylphosphohonate] | > 100 µM | – | activity towards aSMase (aSMase): totally inactive
O=P(O)(O)C(O)(Cn1ccnc1)P(=O)(O)O [Compound 20, zoledronic acid, reference compound] | 5.08 ± 0.74 µM | – | –

From patent US20120178720A1, “Bisphosphonates as Inhibitors of Acid Sphingomyelinase” (priority 2009, published 2012)
